How the values were obtained:
[1] = EGF biological activity, test not specified
Excerpt: C. […] EGF-D represents the 52-amino acid sequence obtained by removing the C-terminal arg, while EGF-B corresponds to EGF-D wherein the C-terminal arg-leu has been removed. EGF-C appears to be EGF-D in which Met21 has been oxidized, while EGF-A appears to be EGF-B with Met21 oxidized. EGF-D is reported to be stable when stored as a lyophilized powder.
EGF may also be altered by adding an N-terminal extension. EGF-flag (.phi.EGF) derivatives have the additional sequence […], which permits rapid purification of peptides by affinity chromatography on anti-flag MAb columns (International Biotechnology Inc.).

[2] = system: Human foreskin fibroblasts; assay: Mitogenicity: 3H-thymidine incorporation; type: cell-based
Description: Mitogenicity was assayed substantially following the method described by D. J. Knauer et al, J Biol Chem (1984) 259:5623-31.
Human foreskin fibroblasts were obtained and frozen at the thirteenth passage. Thawed cells are trypsinized, pelleted, and resuspended in a medium containing DMEM, 5% FBS, 1 mM sodium pyruvate, 300 μg/mL L-glutamine, 100 U/mL penicillin, and 100 μg/mL streptomycin. The cells are counted using a hemocytometer and 0.4% trypan blue. The cell concentration is adjusted to 1×10^-5 cells/mL using the same medium, and dispensed onto microtiter plates (100 μL/well). The plates are incubated for 5 days in a tissue culture incubator.
EGF muteins prepared in Example 1 and native sequence EGF are dissolved to make 100 μg/mL solutions. These solutions are used to make serial dilutions of 20, 10, 5, 2.5, 1.25, 0.625, 0.3125, 0.15625, 0.078125, 0.0390625, 0.0195, and 0.00975 ng/mL. Ten μL of each dilution is added to a microtiter plate well, and the plates returned to the incubator and incubated at 37° C. for 18 hours. The cells are then pulsed with ^3 H-thymidine (^3 H-T), by adding 10 μL of ^3 H-T (100 μCi/mL) to each well, and incubating for 24 hours. The ^3 H-T is then expelled, and the plates rinsed twice with PBS. To fix the cells, the plates are then incubated twice with 5% trichloroacetic acid (TCA) for 15 minutes at room temperature, followed by incubation twice with 100% MeOH. The plates are then air-dried.
The well contents are then solubilized using 0.3 N NaOH (50 μL/well) for 30 minutes, and transferred to scintillation vials. Scintillation fluid (Ready-Solv EP, 4 mL) is then added to each vial, and the vials counted for 1 min with a 0-1,000 (^3 H) window in a Beckman LS3801 counter.

[3] = molecular target: T1, EGF receptor on fixed A431 cells (Homo sapiens, UniProt P00533); assay: Receptor affinity: binding to fixed A431 cells; settings: 1 nM, 2 hr at 37° C.
T1 construct: Confluent A43 1 cells were fixed in 96-well microtiter plates using 0.05% formaldehyde; endogenous in cells; host or cells: A431 cells, formaldehyde-fixed
Description: Confluent A43 1 cells were fixed in 96-well microtiter plates using 0.05% formaldehyde for 10 min at room temperature, then washed 3× with 200 μL PBS with 0.1% bovine serum albumin (BSA).
The wells were then washed 3× with 200 μL of PBS/0.1% BSA, detached, and counted in a gamma counter.

[4] = forms isolated from recombinant yeast culture; cited from earlier work
[5] = stored as a lyophilized powder; cited from earlier work

In the case of “.phi.EGF-E12: flag-extended EGF mutein with Glu for Gly12 (NSDSECPLSHDEYCLHDGVCMYIEALDKYACNCVVGYIGERCQYRDLKWWELR; not fully specified; Epidermal growth factor N-terminal FLAG extension; UniProt P01133 971-1023, looked up, variant G12E)”, the “biological activity of EGF-flag derivatives” value [1] is reported as “biologically active”.
For “.phi.EGF-Q12: flag-extended EGF mutein with Gln at position 12 (NSDSECPLSHDQYCLHDGVCMYIEALDKYACNCVVGYIGERCQYRDLKWWELR; not fully specified; Epidermal growth factor N-terminal FLAG extension; UniProt P01133 971-1023, looked up, variant G12Q)”, the Mitogenicity [2] was 286 percentage of control (EGF) and the Affinity [3] was 154 percentage of control (EGF).
For “.phi.EGF-W13: flag-extended EGF mutein with Trp for Tyr13 (NSDSECPLSHDGWCLHDGVCMYIEALDKYACNCVVGYIGERCQYRDLKWWELR; not fully specified; Epidermal growth factor N-terminal FLAG extension; UniProt P01133 971-1023, looked up, variant Y13W)”, the “biological activity of EGF-flag derivatives” value [1] was “biologically active”, the Mitogenicity [2] was 216 percentage of control (EGF) and the Affinity [3] was 73 percentage of control (EGF).
In the case of “EFG: wild-type human epidermal growth factor, 53-amino acid protein; control of Table 1 [reference compound]”, the Mitogenicity [2] is reported as 100 percentage of control (EGF).
With “EGF-A15: EGF mutein with Ala at position 15” the Mitogenicity [2] was 3 percentage of control (EGF).
In the case of “EGF-A41: EGF mutein with Ala at position 41”, the Mitogenicity [2] is reported as < 0.4 percentage of control (EGF).
In the case of “EGF-A43: EGF mutein with Ala at position 43 (Glu43 replaced)”, the Mitogenicity [2] is reported as 63 percentage of control (EGF).
In the case of “EGF-B: EGF-D wherein the C-terminal arg-leu has been removed (NSDSECPLSHDGYCLHDGVCMYIEALDKYACNCVVGYIGERCQYRDLKWWE; not fully specified; Epidermal growth factor; UniProt P01133 971-1021, looked up, fragment)”, the EGF activity [4] is listed as “full EGF activity”.
For “EGF-D: 52-amino acid sequence obtained by removing the C-terminal arg of EGF (NSDSECPLSHDGYCLHDGVCMYIEALDKYACNCVVGYIGERCQYRDLKWWEL; not fully specified; Epidermal growth factor; UniProt P01133 971-1022, looked up, fragment)”, the EGF activity [4] is given as “full EGF activity” and the stability on storage [5] is given as “stable”.

— patent US5547935A (Chiron Corporation, priority 1994, dated 1996)
